The source of these data is US20230066011A1, “PYRROLOPYRIMIDINE DERIVATIVE, AND PHARMACEUTICAL COMPOSITION FOR PREVENTING OR TREATING PROTEIN KINASE-RELATED DISEASE COMPRISING SAME AS ACTIVE INGREDIENT” (VORONOI CO., LTD., priority 2019, published 2023).

One experiment concerns MDA-MB-231 cell line. Description: Inhibition of proliferation of MDA-MB-231 cancer cells (Cell Titer-Glo). The settings on record: Homo sapiens, 72 hours. Format: cell-based. In a few lines: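 GI50 values derive from Cell Titer-Glo luminescence, measured after a 10-minute room-temperature incubation with the reagent. Before that, cells plated at 2,000 per well in DMEM or RPMI medium were treated for 72 h with compound at 11 final concentrations spanning 10 μM down to 0.000169 μM in threefold steps.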

The test system of the next experiment is IL-6. Description: Inhibition of LPS-induced IL-6 secretion of THP-1 monocytes (ELISA). The class given is cell-based, human. The note with it: Homo sapiens, THP-1; compound 0.5 μM, LPS 500 ng/mL, 24 hours; read-out: THP1/IL6 (% inhib). The procedure, abridged: (§1)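 THP-1 monocytes grown 16 h at 37 °C, pretreated 1 h with compound at final 0.5 μM, then stimulated with LPS at final 500 ng/mL for 24 h. IL-6 and TNF-α in culture supernatant measured by ELISA (OD 450 nm).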

In a further experiment the test system is TNF-α. Description: Inhibition of LPS-induced TNF-α secretion of THP-1 monocytes (ELISA). Format: cell-based, human. The note with it: Homo sapiens, THP-1; compound 0.5 μM, LPS 500 ng/mL, 24 hours; read-out: THP-1/TNF-α (% inhib). In a few lines:
as §1

The test system of another experiment is human DYRK1A and tau. Put plainly: Inhibition of tau phosphorylation, ClariCELL Kinase Cell-Based Assay, HEK 293 cells expressing human DYRK1A and tau. The settings on record: for inhibition at 1 µM: HEK293, read-out: % inhibition at 1 uM, tau phosphorylation, compound 1 uM; for inhibition at 0.25 µM / inhibition at 0.5 µM: HEK293, tau phosphorylation; for inhibition at 0.25 µM: compound 0.25 uM; for inhibition at 0.5 µM: compound 0.5 uM. The procedure, abridged:
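Cell-based service assay: HEK 293 cells transiently expressing human DYRK1A and tau were treated with compound and lysed. Released tau was plate-captured and its phosphorylation quantified by ELISA with a phospho-tau-specific antibody.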

In a further experiment the target is LRRK2 (G2019S) (Homo sapiens, UniProt Q5S007, G2019S). Description: LRRK2 G2019S enzyme inhibition, ADP-Glo kinase assay. The class given is biochemical. More on the design: purchased SignalChem L10-12GG. The note with it: ATP 25 μM. The procedure, abridged: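 Purified human LRRK2 G2019S (16 ng) with 25 μM ATP and 0.2 μg substrate, 2 h at 25° C. in Tris-HCl pH 7.4, MgCl2, BSA, DTT buffer; compounds at 12 final concentrations, 50 μM down to 0.000001024 μM. ADP-Glo luminescence versus solvent control gave IC50.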
Sequence of LRRK2 (G2019S) (Q5S007 970-2527 G2019S limits assumed): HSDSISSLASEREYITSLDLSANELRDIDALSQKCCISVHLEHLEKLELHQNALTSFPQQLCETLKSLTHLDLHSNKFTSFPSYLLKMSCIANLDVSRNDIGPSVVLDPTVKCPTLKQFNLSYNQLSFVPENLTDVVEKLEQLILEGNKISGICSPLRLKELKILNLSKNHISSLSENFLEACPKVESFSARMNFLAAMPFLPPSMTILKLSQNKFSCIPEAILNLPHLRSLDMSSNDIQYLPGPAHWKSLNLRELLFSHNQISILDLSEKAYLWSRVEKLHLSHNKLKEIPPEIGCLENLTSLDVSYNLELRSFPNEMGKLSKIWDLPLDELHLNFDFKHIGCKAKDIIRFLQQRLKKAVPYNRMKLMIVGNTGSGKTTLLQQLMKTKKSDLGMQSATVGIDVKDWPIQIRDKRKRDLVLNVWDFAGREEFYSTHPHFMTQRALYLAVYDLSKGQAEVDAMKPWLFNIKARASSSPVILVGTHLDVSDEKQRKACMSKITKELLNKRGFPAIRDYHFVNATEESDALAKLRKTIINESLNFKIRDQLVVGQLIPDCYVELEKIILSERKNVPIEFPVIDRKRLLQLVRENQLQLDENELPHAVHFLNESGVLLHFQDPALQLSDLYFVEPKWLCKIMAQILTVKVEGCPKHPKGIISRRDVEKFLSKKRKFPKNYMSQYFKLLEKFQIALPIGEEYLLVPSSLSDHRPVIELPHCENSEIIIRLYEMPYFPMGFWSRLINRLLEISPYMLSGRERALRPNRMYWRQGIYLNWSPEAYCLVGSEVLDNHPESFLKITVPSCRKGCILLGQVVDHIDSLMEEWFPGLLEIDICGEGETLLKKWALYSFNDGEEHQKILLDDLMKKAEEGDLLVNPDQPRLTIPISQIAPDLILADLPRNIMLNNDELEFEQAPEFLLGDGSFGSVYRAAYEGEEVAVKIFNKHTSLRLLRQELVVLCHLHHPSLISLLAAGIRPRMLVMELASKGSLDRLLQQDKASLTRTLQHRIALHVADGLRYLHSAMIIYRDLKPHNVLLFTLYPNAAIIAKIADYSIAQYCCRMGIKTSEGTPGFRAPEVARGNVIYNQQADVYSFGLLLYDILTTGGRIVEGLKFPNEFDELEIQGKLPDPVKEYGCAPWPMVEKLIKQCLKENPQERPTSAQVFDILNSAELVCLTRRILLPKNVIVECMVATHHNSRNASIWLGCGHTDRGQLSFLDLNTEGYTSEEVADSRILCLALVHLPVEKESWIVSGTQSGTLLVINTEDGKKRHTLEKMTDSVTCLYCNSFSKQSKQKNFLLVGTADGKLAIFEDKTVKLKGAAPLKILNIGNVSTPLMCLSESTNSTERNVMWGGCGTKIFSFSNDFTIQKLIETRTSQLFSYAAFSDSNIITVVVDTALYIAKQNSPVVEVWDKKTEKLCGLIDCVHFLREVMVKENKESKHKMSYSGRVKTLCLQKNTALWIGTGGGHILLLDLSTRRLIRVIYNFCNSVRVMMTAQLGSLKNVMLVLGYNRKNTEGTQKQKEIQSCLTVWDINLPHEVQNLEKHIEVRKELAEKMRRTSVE

Structures are written as SMILES.

The compound `CNc1nc(Nc2ccc(S(=O)(=O)N3CCC(N4CCOCC4)CC3)cc2OC)nc2[nH]cc(C(F)(F)F)c12` [Example 157, N^2-(2-methoxy-4-((4-morpholinopiperidin-1-yl)sulfonyl)phenyl)-N^4-methyl-5-(trifluoromethyl)-7H-pyrrolo[2,3-d]pyrimidine-2,4-diamine 2,2,2-trifluoroacetate] came in with a GI50 with MDA-MB-231 cell line of 301 to 1000 nM. The inhibition at 0.5 µM in the experiment with IL-6 was 1.6%. Besides, the inhibition at 0.5 µM in the experiment with TNF-α amounted to 6.7%. In the experiment with human DYRK1A and tau, the inhibition at 1 µM came to 83.9%, the inhibition at 0.25 µM stood at 41.2% and the inhibition at 0.5 µM is 71%. Moreover, the IC50 against LRRK2 (G2019S) is less than 100 nM.
Compound `CNc1nc(Nc2ccc(S(=O)(=O)N3CCC(N4CCOCC4)CC3)c3c2OCCO3)nc2[nH]cc(C(F)(F)F)c12` [Example 219, N^4-methyl-N^2-(8-((4-morpholinopiperidin-1-yl)sulfonyl)-2,3-dihydrobenzo[b][1,4]dioxin-5-yl)-5-(trifluoromethyl)-7H-pyrrolo[2,3-d]pyrimidine-2,4-diamine] gave a GI50 in the experiment on MDA-MB-231 cell line of 301 to 1000 nM. Also, in the experiment with IL-6, the inhibition at 0.5 µM is 10.9%. For the same compound, in the experiment with TNF-α, the inhibition at 0.5 µM turned out to be 6.6%. Also, in the experiment with human DYRK1A and tau, the inhibition at 1 µM amounted to 84.2%, the inhibition at 0.25 µM is 42.1% and the inhibition at 0.5 µM is 58.8%. In addition, the IC50 against LRRK2 (G2019S) was less than 100 nM.
For the compound `COCCNc1nc(Nc2ccc(C(=O)N3CCC(N4CCOCC4)CC3)c3c2OCC3)nc2[nH]cc(C#N)c12` [Example 359, 4-((2-methoxy-ethyl)ami-no)-2-((4-(4-morpholino-piperidine-1-carbonyl)-2,3-dihydro-benzofuran-7-yl)amino)-7H-pyrrolo[2,3-d]pyrimidine-5-carbonitrile], the GI50 in the experiment on MDA-MB-231 cell line is 301 to 1000 nM. Further, the inhibition at 0.5 µM with IL-6 was found to be 32%; with TNF-α, 33.2%; in the experiment with human DYRK1A and tau it was 42.8%. Besides, the inhibition at 1 µM in the experiment on human DYRK1A and tau worked out at 55.9%. In the experiment on human DYRK1A and tau, this compound returned an inhibition at 0.25 µM of 23.4%.
`CCNc1nc(Nc2ccc(S(=O)(=O)N3CCC(N4CCOCC4)CC3)c3c2OCCO3)nc2[nH]cc(C(F)(F)F)c12` [Example 430, N^4-ethyl-N^2-(8-((4-morpholino-piperidin-1-yl)sulfonyl)-2,3-dihydro-benzo[b][1,4]dioxin-5-yl)-5-(trifluoromethyl)-7H-pyrrolo[2,3-d]pyrimidine-2,4-diamine] yielded a GI50 in the experiment with MDA-MB-231 cell line of 301 to 1000 nM. Besides, the inhibition at 0.5 µM in the experiment on IL-6 was determined as 21%. For the same compound, the inhibition at 0.5 µM in the experiment with TNF-α was found to be 4.5%. In addition, in the experiment with human DYRK1A and tau, the inhibition at 1 µM is 65.3%, the inhibition at 0.25 µM is 10.8% and the inhibition at 0.5 µM is 41.6%. The compound also displayed a half-inhibitory concentration (IC50) on LRRK2 (G2019S) of less than 100 nM.
For `COc1cc(S(=O)(=O)N2CCC(N3C[C@H]4C[C@@H]3CO4)CC2)ccc1Nc1nc(C2CC2)c2c(C(F)(F)F)c[nH]c2n1` [Example 473, N-(4-((4-((1R,4R)-2-oxa-5-azabicyclo[2.2.1]heptan-5-yl)piperidin-1-yl)sulfonyl)-2-methoxyphenyl)-4-cyclopropyl-5-(trifluoromethyl)-7H-pyrrolo[2,3-d]pyrimidin-2-amine], in the experiment on MDA-MB-231 cell line, the GI50 is 101 to 300 nM. Moreover, in the experiment with IL-6, the inhibition at 0.5 µM was 31%. For the same compound, in the experiment with TNF-α, the inhibition at 0.5 µM worked out at 11.3%. In the experiment on human DYRK1A and tau, the inhibition at 1 µM is 73.3%, the inhibition at 0.25 µM turned out to be 16.3% and the inhibition at 0.5 µM amounted to 35.8%.
